Measurements as given in patent US6140354A, “N-substituted aminotetralins as ligands for the neuropeptide Y Y5 receptor useful in the treatment of obesity and other disorders” (Ortho-McNeil Pharmaceutical, Inc., priority 1999, dated 2000).

Molecular target: T1, human neuropeptide Y5 receptor (Homo sapiens, UniProt Q15761)
T1 construct: expressed in transfected cells
T1 sequence (Q15761 1-445): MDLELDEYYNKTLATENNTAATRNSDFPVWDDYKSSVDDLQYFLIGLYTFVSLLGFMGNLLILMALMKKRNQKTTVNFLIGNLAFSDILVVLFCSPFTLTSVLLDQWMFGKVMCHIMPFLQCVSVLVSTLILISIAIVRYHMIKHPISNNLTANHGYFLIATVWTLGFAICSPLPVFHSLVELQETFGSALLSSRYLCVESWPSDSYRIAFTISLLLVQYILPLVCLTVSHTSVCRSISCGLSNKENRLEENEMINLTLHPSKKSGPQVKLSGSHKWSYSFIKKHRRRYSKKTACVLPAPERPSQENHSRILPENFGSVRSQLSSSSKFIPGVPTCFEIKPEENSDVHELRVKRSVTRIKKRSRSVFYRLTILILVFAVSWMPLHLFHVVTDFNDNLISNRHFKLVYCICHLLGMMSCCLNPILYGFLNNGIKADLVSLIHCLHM
Experiment: NPY5 HTS Centrifugation Assay: competition with 125I-PYY for binding to NPY5-transfected HEK293 cell membranes
Details: 80 pM 125I-PYY, 1 hr room temperature, read-out: % Inh @ 3 uM (% Inhibition of ^125 I-PYY Binding)
Procedure: The compounds described in this invention were evaluated for binding to the human neuropeptide Y5 receptor.
The human NPY5 receptor cDNA (Genbank Accession number U66275) was inserted into the vector pClneo (Invitrogen) and transfected into human embryonic kidney cells (HEK-293) via Calcium phosphate method (Cullen 1987). Stably transfected cells were selected with G-418 (600 ug/mL). Stably transfected cells served as the source for the membranes for the NPY5 receptor binding assay.
NPY5-transfected HEK293 cells were grown to confluence in 150 cm^2 culture dishes. Cells were washed once with phosphate-buffered saline (Gibco Cat#14040-133). Cells were then incubated in phosphate-buffered saline without Calcium and without Magnesium, supplemented with 2 mM EDTA. Cells were incubated for 10 minutes at room temperature and the cells were collected by repetitive pipeting. Cells were formed into pellets and then frozen at -80 until needed. Frozen pellets were homogenized with a polytron at full speed for 12 seconds in a homogenization buffer (20 mM Tris HCl, 5 mM EDTA, pH 7.4). Homogenates were centrifuged for 5 minutes at 4C at 200 g. Supernatants were transferred to corex tubes and centrifuged for 25 minutes at 28,000 g. Pellets were re-suspended in Binding (20 mM HEPES, 10 mM NaCl, 0.22 mM KH2 PO4, 1.3 mM CaCl2, 0.8 mM MgSO4, pH 7.4). Membranes were kept on ice until use.
A competition binding assay, known to those skilled in the art, was used in which aminotetralins (I) compete with ^125 I-PYY for binding to cell membranes. In simple terms, the less ^125 I-PYY bound to the membranes implies that a compound is a good inhibitor (competitor). Bound ^125 I-PYY is determined by centrifugation of membranes, aspirating supernatant, washing away residual ^125 I-PYY and subsequently counting the bound sample in a g-counter.
Compounds to be tested were prepared as 10× stocks in binding buffer and added first to assay tubes (RIA vials, Sarstedt). Twenty (20) μL of each 10× compound stock is pipeted into vials and 80 μL of ^125 I-PYY (NEN catalog number NEX240), which has been diluted to a concentration of 200 pM in 0.25% BSA in binding buffer, is added to the compound tubes (final concentration of ^125 I-PYY is 80 pM). To each tube is added 100 μL of membranes and the mixture is agitated by pipeting 2 times. Samples are incubated for 1 hr at room temperature. Aluminum cast plates (Sarstedt) containing the vials are then centrifuged 10 minutes at 3200 rpm in a Sorvall RT6000. Supernatant is then aspirated. To each vial 400 μL PBS is added and this is then aspirated again. Vials are then put in carrier polypropylene 12×75 tube and counted in gamma counter (Packard). Non-specific binding is determined in the presence of 300 nM NPY. Percent inhibition of ^125 I-PYY binding is calculated by subtracting non-specific binding from the test samples (compound (I)), taking these counts and dividing by total binding, and multiplying by 100. Inhibitory concentration values (IC50) of compounds that show appreciable inhibition of ^125 I-PYY binding are calculated by obtaining percent inhibition of ^125 I-PYY binding values at different concentrations of the test compound, and using a graphing program such as GraphPad Prism (San Diego, Calif.) to calculate the concentration of test compound that inhibits fifty-percent of ^125 I-PYY binding (Table 4). These operations are known to those skilled in the art.

Structure (SMILES) | inhibition at 3 µM [%]
COc1ccc2c(c1)CCC(NC[C@H]1CC[C@H](CNS(=O)(=O)c3ccc4ccccc4c3)CC1)C2Cc1ccc2ccccc2c1 (relative stereo) [Compound 82] | 54
COc1ccc2c(c1)CCC(NC[C@H]1CC[C@H](CNS(=O)(=O)c3cccc([N+](=O)[O-])c3)CC1)C2Cc1ccccc1 (some centres unmarked) [Compound 62] | 95
COc1ccc2c(c1)CC[C@H](NC[C@H]1CC[C@H](CNS(=O)(=O)c3ccccc3)CC1)[C@@H]2CCCO (relative stereo) [Compound 40, rac-[1α,2α(trans)]-N-[[[[[1,2,3,4-tetrahydro-6-methoxy-1-(3-hydroxypropyl)-2-naphthalenyl]amino]methyl]-4-cyclohexyl]methyl] benzenesulfonamide] | 91
COc1ccc2c(c1)CCC(NC[C@H]1CC[C@H](CNS(=O)(=O)c3ccccc3)CC1)C2Cc1ccccc1C(F)(F)F (some centres unmarked) [Compound 98] | 30
COc1ccc2c(c1)CCC(NC[C@H]1CC[C@H](CNS(=O)(=O)c3ccccc3)CC1)C2Cc1ccc(C(F)(F)F)cc1 (some centres unmarked) [Compound 100] | 93
COc1ccc2c(c1)CC[C@H](NC[C@H]1CC[C@H](CNS(=O)(=O)c3cccs3)CC1)[C@@H]2Cc1ccccc1 (relative stereo) [Compound 59] | 102
COc1ccc2c(c1)CCC(NC[C@H]1CC[C@H](CNS(=O)(=O)c3ccccc3C(F)(F)F)CC1)C2Cc1ccccc1 (some centres unmarked) [Compound 65] | 0
COc1ccc2c(c1)CCC(NC[C@H]1CC[C@H](CNS(=O)(=O)c3ccccc3)CC1)C2Cc1ccc2ccccc2c1 (relative stereo) [Compound 81] | 89
COc1ccc2c(c1)CCC(NC1CCC(NS(=O)(=O)c3ccc4ccccc4c3)CC1)C2Cc1ccccc1 (centres unmarked) [Compound 50] | 44
COc1ccc2c(c1)CCC(NC[C@H]1CC[C@H](CNS(=O)(=O)c3ccccc3)CC1)C2Cc1ccccc1OC (relative stereo) [Compound 85] | 74
COc1ccc2c(c1)CCC(NC[C@H]1CC[C@H](CNS(=O)(=O)c3ccccc3)CC1)C2Cc1ccc([N+](=O)[O-])cc1 (some centres unmarked) [Compound 87] | 84
COc1ccc2c(c1)CC[C@H](NC[C@H]1CC[C@H](CNS(=O)(=O)c3ccccc3)CC1)[C@@H]2Cc1ccccc1 (relative stereo) [Compound 52] | 99
COc1cccc(CC2c3ccc(OC)cc3CCC2NC[C@H]2CC[C@H](CNS(=O)(=O)c3ccccc3)CC2)c1 (relative stereo) [Compound 83] | 92
O=S(=O)(NC[C@H]1CC[C@H](CNC2CCc3c(Cl)cccc3C2Cc2ccccc2)CC1)c1ccccc1 (relative stereo) [Compound 105] | 98
O=S(=O)(NC[C@H]1CC[C@H](CNC2CCc3cc(F)ccc3C2Cc2ccccc2)CC1)c1ccccc1Cl (relative stereo) [Compound 73] | 107
COc1ccc2c(c1)CCC(NC[C@H]1CC[C@H](CNS(=O)(=O)c3ccccc3)CC1)C2Cc1ccc(Cl)cc1 (relative stereo) [Compound 97] | 90
COc1ccc2c(c1)CCC(NC[C@H]1CC[C@H](CNS(=O)(=O)c3ccc4ccccc4c3)CC1)C2Cc1cccc(Cl)c1 (some centres unmarked) [Compound 93] | 60
COc1ccc2c(c1)CCC(NC[C@H]1CC[C@H](CNS(=O)(=O)c3ccccc3)CC1)C2Cc1ccccc1Cl (relative stereo) [Compound 95] | 84

Structure (SMILES) | inhibition at 3 µM [%]
O=S(=O)(NC[C@H]1CC[C@H](CN[C@H]2CCc3cc(F)ccc3[C@H]2Cc2ccccc2)CC1)c1ccccc1F (relative stereo) [Compound 26, rac-[1α,2α(trans)]-N-[[[[[1,2,3,4-tetrahydro-6-fluoro-1-(3-phenylmethyl)-2-naphthalenyl]amino]methyl]-4-cyclohexyl]methyl]2-fluorobenzenesulfonamide] | 107
COc1ccc2c(c1)CCC(NC[C@H]1CC[C@H](CNS(=O)(=O)c3ccccc3[N+](=O)[O-])CC1)C2Cc1c(F)cccc1F (relative stereo) [Compound 90] | 97
COc1ccc2c(c1)CCC(NC[C@H]1CC[C@H](CNS(=O)(=O)c3ccc(Br)cc3)CC1)C2Cc1ccccc1 (some centres unmarked) [Compound 70] | 95
O=S(=O)(NCCCCCN[C@H]1CCc2ccccc2[C@H]1Cc1ccccc1)c1ccc2ccccc2c1 (relative stereo) [Compound 46] | 89
COc1ccc2c(c1)CCC(NC[C@H]1CC[C@H](CNS(=O)(=O)c3ccc([N+](=O)[O-])cc3)CC1)C2Cc1ccccc1 (some centres unmarked) [Compound 63] | 93
COc1ccc2c(c1)CCC(NC[C@H]1CC[C@H](CNS(=O)(=O)c3ccccc3)CC1)C2Cc1cccc(C(F)(F)F)c1 (some centres unmarked) [Compound 99] | 99
O=S(=O)(NC[C@H]1CC[C@H](CNC2CCc3cc(O)c(O)cc3C2Cc2ccccc2)CC1)c1ccccc1 (relative stereo) [Compound 109] | 101
COc1ccc2c(c1)CCC(NC[C@H]1CC[C@H](CNS(=O)(=O)c3cccc(Br)c3)CC1)C2Cc1ccccc1 (some centres unmarked) [Compound 69] | 93
COc1ccc2c(c1)CC[C@H](NC[C@H]1CC[C@H](CNS(=O)(=O)c3ccc4ccccc4c3)CC1)[C@@H]2Cc1cccnc1 (relative stereo) [Compound 18, rac-[1α,2α(trans)]-N-[[[[[1,2,3,4-tetrahydro-6-methoxy-1-(3-pyridinylmethyl)-2-naphthalenyl]amino]methyl]-4-cyclohexyl]methyl]2-naphthalenesulfonamide] | 96
O=S(=O)(NC[C@H]1CC[C@H](CNC2CCc3cc(F)ccc3C2Cc2ccccc2)CC1)c1ccc(Cl)c(Cl)c1 (some centres unmarked) [Compound 78] | 92
COc1ccc2c(c1)CCC(NC[C@H]1CC[C@H](CNS(=O)(=O)c3ccccc3)CC1)C2Cc1c(F)cccc1F (relative stereo) [Compound 89] | 98
COc1ccc2c(c1)CCC(NC[C@H]1CC[C@H](CNS(=O)(=O)c3ccccc3[N+](=O)[O-])CC1)C2Cc1ccc([N+](=O)[O-])cc1 (relative stereo) [Compound 88] | 85
COc1ccc2c(c1)CCC(NCCCCCCCCNS(=O)(=O)c1ccc3ccccc3c1)C2Cc1ccccc1 (centres unmarked) [Compound 48] | 68
COc1ccc2c(c1)CC[C@H](NC[C@H]1CC[C@H](CNS(=O)(=O)c3ccccc3[N+](=O)[O-])CC1)[C@@H]2Cc1ccccc1 (relative stereo) [Compound 54] | 94
COc1ccc2c(c1)CCC(NC[C@H]1CC[C@H](CNS(=O)(=O)c3cccc(F)c3)CC1)C2Cc1ccccc1 (some centres unmarked) [Compound 60] | 94
C=CC[C@@H]1c2ccc(OC)cc2CC[C@@H]1NC[C@H]1CC[C@H](CNS(=O)(=O)c2ccccc2)CC1 (relative stereo) [Compound 39, rac-[1α,2α(trans)]-N-[[[[[1,2,3,4-tetrahydro-6-methoxy-1-(1-propene-3-yl)-2-naphthalenyl]amino]methyl]4-cyclohexyl]methyl] benzenesulfonamide] | 102
COc1ccc2c(c1)CCC(NC[C@H]1CC[C@H](CNS(=O)(=O)c3ccccc3CN)CC1)C2Cc1ccccc1 (some centres unmarked) [Compound 67] | 91
